Where a SMILES comes first, the peptide text is derived from it. [ ]: non-standard residue; d: D form. The star is where a group is joined. X2 = CC(C)C[C@@H](CN[C@@H](CC(C)C)C(N)=O)N*; X1 = O=C(Cc1ccc(O)cc1)*
Tested on: BN receptors on the Swiss 3T3 mouse fibroblast cell line
Assay: Test 1: displacement of [¹²⁵I-Tyr⁴]-BN from BN receptors on Swiss 3T3 cells
Assay type: binding
Conditions: 1 nmol [¹²⁵I-Tyr⁴]-BN, 4 °C, 3 hours
Experimental: The biological investigation of the new compounds of the invention was carried out in four tests. The BN-antagonizing effect of the compounds in question was determined in Test 1, based on measuring the displacement of the labelled [¹²⁵I-Tyr⁴]-BN from the BN receptors being present on the Swiss 3T3 mouse fibroblast cells. Test 2 and Test 3 were used to study the inhibitory effect of the compounds of the invention on the proliferation and propagation of NCI-H69 small-cell lung cancer cells. The inhibitory effect of the compounds of the invention on non-small-cell lung cancer cells and epithelial-cell lung cancer cells was investigated in Test 4.
Study of the binding of target compounds to BN receptors on the Swiss 3T3 mouse fibroblast cell line
Swiss 3T3 mouse fibroblast cells were grown on tissue-cultivating plates containing 24 holes in a D-MEM culture medium containing FCS of 10 % until a confluent and resting state (3x10⁵ cell/hole). The cells were washed 3 times with 0.5 ml of D-MEM of pH 7.4 (containing 0.2 % of BSA and 24 mmol of HEPES, and cooled to 4 °C), i.e. incubation mixture, each. […] At the end of the reaction the cells were washed twice with the incubation mixture and then 3 times with PBS (pH = 7.4).
The washings were carried out with 750 µl volumes of the ice-cold liquids each. The cells were solubilized by adding 750 µl of 0.5 M sodium hydroxide solution, carried over into test-tubes by pipette and the radio-activity bound to the cells was measured. The grade of aspecific binding was determined in the presence of a high concentration (10⁻⁶ mol/l) of cold [Tyr⁴]-BN. The amount of the specifically bound, labelled hormone was expressed as the percentage of the maximum binding, i.e. the specific binding in the absence of the compounds to be tested, as shown in Table 1.

CC(C)C[C@@H](CN[C@@H](CC(C)C)C(N)=O)NC(=O)[C@@H](Cc1c[nH]c2ccccc12)NC(=O)[C@H](Cc1ccccc1)NC(=O)[C@@H](Cc1c[nH]c2ccccc12)NC(=O)Cc1ccc(O)cc1 [(1)]
Displacement as percentage of control net binding (1.18 µmol/l compound): 105% | Displacement as percentage of control net binding (2.36 µmol/l compound): 96% | Displacement as percentage of control net binding (4.71 µmol/l compound): 99% | Displacement as percentage of control net binding (9.42 µmol/l compound): 103% | Displacement as percentage of control net binding (18.8 µmol/l compound): 106% | Displacement as percentage of control net binding (37.6 µmol/l compound): 107% | Displacement as percentage of control net binding (75 µmol/l compound): 105%

CC(C)C[C@@H](CN[C@@H](CC(C)C)C(N)=O)NC(=O)[C@@H](Cc1c[nH]c2ccccc12)NC(=O)[C@H](Cc1ccccc1)NC(=O)[C@@H](Cc1c[nH]c2ccccc12)NC(=O)[C@H](N)Cc1ccc(O)cc1 [(4)] (H-[dY][dW]F[dW]-X2)
Displacement as percentage of control net binding (1.18 µmol/l compound): 85% | Displacement as percentage of control net binding (2.36 µmol/l compound): 88% | Displacement as percentage of control net binding (4.71 µmol/l compound): 79% | Displacement as percentage of control net binding (9.42 µmol/l compound): 72% | Displacement as percentage of control net binding (18.8 µmol/l compound): 61% | Displacement as percentage of control net binding (37.6 µmol/l compound): 52% | Displacement as percentage of control net binding (75 µmol/l compound): 45%

CC(C)C[C@H](NC(=O)[C@H](CC(C)C)NC(=O)[C@@H](Cc1c[nH]c2ccccc12)NC(=O)[C@H](Cc1ccccc1)NC(=O)[C@@H](Cc1c[nH]c2ccccc12)NC(=O)Cc1ccc(O)cc1)C(N)=O [(I), reference compound] (X1-[dW]F[dW]LL-NH2)
Displacement as percentage of control net binding (1.18 µmol/l compound): 108% | Displacement as percentage of control net binding (2.36 µmol/l compound): 98% | Displacement as percentage of control net binding (4.71 µmol/l compound): 83% | Displacement as percentage of control net binding (9.42 µmol/l compound): 55% | Displacement as percentage of control net binding (18.8 µmol/l compound): 33% | Displacement as percentage of control net binding (37.6 µmol/l compound): 18% | Displacement as percentage of control net binding (75 µmol/l compound): 23%

From patent publication EP0556962A1, “Small peptide and pseudopeptide amides inhibiting the proliferation of small-cell and epithelial-cell lung cancer cells” (RICHTER GEDEON VEGYESZETI GYAR R.T., priority 1992, dated 1993)
